From article PMC6770857, “Unraveling Binding Mechanism of Alzheimer’s Drug Rivastigmine Tartrate with Human Transferrin: Molecular Docking and Multi-Spectroscopic Approach towards Neurodegenerative Diseases” (Biomolecules, 2019)
Structures can show the parent of a compound that is named as a salt.

Target: T1, human transferrin (hTf) (Homo sapiens, UniProt P02787)
T1 construct: gene TF
Test: intrinsic fluorescence quenching, modified Stern-Volmer
Type: binding
Conditions: pH 7.4, 50 mM sodium phosphate, 301 K, 4 uM hTf, excitation 280 nm, n = 0.99; double-log
Text: intrinsic fluorescence quenching, modified Stern-Volmer on human transferrin (hTf)

T1 sequence (P02787 20-698): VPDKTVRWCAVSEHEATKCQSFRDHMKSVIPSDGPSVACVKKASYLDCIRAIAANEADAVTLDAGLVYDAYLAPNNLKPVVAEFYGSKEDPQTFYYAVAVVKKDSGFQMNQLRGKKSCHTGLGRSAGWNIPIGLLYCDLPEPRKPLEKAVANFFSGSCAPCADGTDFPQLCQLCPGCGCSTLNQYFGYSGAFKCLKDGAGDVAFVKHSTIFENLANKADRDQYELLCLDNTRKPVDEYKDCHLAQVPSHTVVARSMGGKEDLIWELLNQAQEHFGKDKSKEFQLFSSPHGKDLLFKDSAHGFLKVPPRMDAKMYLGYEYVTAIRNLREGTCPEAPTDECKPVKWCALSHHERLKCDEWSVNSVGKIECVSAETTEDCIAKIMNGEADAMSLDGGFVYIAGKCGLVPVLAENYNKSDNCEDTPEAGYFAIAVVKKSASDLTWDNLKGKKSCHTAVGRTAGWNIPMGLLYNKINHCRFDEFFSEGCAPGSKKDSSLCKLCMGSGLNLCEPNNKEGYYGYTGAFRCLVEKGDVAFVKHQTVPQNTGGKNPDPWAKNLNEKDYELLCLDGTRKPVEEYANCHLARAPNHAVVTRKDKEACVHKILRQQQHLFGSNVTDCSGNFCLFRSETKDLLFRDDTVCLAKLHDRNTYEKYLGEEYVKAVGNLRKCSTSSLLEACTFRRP

SMILES: CCN(C)C(=O)Oc1cccc([C@H](C)N(C)C)c1 [Rivastigmine tartrate]
- K (10^4 M^-1): 5.3 10^4 M^-1
